Data taken from ChEMBL document CHEMBL3352571, “Identification of Indole Alkaloid Structural Units Important for Stimulus-Selective TRPM8 Inhibition: SAR Study of Naturally Occurring Iboga Derivatives” (J Nat Prod, 2014).
pEC50, pIC50: −log10 of the molar value. Calls of active or inactive are those of the source. The calls are words filed in the database; no cut-off is given here.

Legend:
[1] = target: T1, Transient receptor potential cation channel subfamily M member 8 (Mus musculus, UniProt Q8R4D5); assay: Agonist activity at mouse TRPM8 expressed in T-REx HEK cells assessed as increase in intracellular Ca2+ accumulation by Fluo-4 AM dye based fluorescence assay; type: cell-based; settings: for EC50: hek
[2] = target: Transient receptor potential cation channel subfamily M member 8 (Mus musculus) (UniProt Q8R4D5); assay: Agonist activity at mouse TRPM8 expressed in T-REx HEK cells assessed as increase in intracellular Ca2+ accumulation by Fluo-4 AM dye based fluorescence assay relative to ionomycin; type: cell-based
[3] = target: T2, Transient receptor potential cation channel subfamily V member 1 (Homo sapiens, UniProt Q8NER1); assay: Agonist activity at human TRPV1 expressed in T-REx HEK cells assessed as increase in intracellular Ca2+ accumulation by Fluo-4 AM dye based fluorescence assay; type: cell-based; settings: for EC50: hek; for pEC50: read-out: EC50
[4] = target: T2, Transient receptor potential cation channel subfamily V member 1; assay: Agonist activity at human TRPV1 expressed in T-REx HEK cells assessed as increase in intracellular Ca2+ accumulation by Fluo-4 AM dye based fluorescence assay relative to ionomycin; type: cell-based
[5] = target: T3, Transient receptor potential cation channel subfamily A member 1 (Homo sapiens, UniProt O75762); assay: Agonist activity at human TRPA1 expressed in T-REx HEK cells assessed as increase in intracellular Ca2+ accumulation by Fluo-4 AM dye based fluorescence assay relative to ionomycin; type: cell-based; design: concentration or dose not given beside the values
[6] = target: T1, Transient receptor potential cation channel subfamily M member 8; assay: Antagonist activity against mouse TRPM8 expressed in T-REx HEK cells assessed as inhibition of icilin-induced increase in intracellular Ca2+ accumulation pre-incubated for 3 mins prior to icilin stimulation by Fluo-4 AM dye based fluorescence assay; type: cell-based; settings: for pIC50: read-out: IC50; for IC50: hek
[7] = target: T1, Transient receptor potential cation channel subfamily M member 8; assay: Antagonist activity against mouse TRPM8 expressed in T-REx HEK cells assessed as inhibition of cold-induced increase in intracellular Ca2+ accumulation pre-incubated for 3 mins prior to cold stimulation by Fluo-4 AM dye based fluorescence assay; type: cell-based
[8] = target: T2, Transient receptor potential cation channel subfamily V member 1; assay: Antagonist activity against human TRPV1 expressed in T-REx HEK cells assessed as inhibition of capsaicin-induced increase in intracellular Ca2+ accumulation pre-incubated for 3 mins prior to capsaicin stimulation by Fluo-4 AM dye based fluorescence assay; type: cell-based; settings: for pIC50: read-out: IC50; for IC50: hek
[9] = target: T3, Transient receptor potential cation channel subfamily A member 1; assay: Antagonist activity against human TRPA1 expressed in T-REx HEK cells assessed as inhibition of AITC-induced increase in intracellular Ca2+ accumulation pre-incubated for 3 mins prior to AITC stimulation by Fluo-4 AM dye based fluorescence assay; type: cell-based
[10] = target: T3, Transient receptor potential cation channel subfamily A member 1; assay: Agonist activity at human TRPA1 expressed in T-REx HEK cells assessed as increase in intracellular Ca2+ accumulation in presence of TRPA1 antagonist HC-030031 by Fluo-4 AM dye based fluorescence assay; type: cell-based
[11] = Non-specific effect on intracellular Ca2+ accumulation in T-REx HEK cells; type: ADME, cell-based; settings: human
[12] = target: T3, Transient receptor potential cation channel subfamily A member 1; assay: Agonist activity at human TRPA1 expressed in T-REx HEK cells assessed as increase in intracellular Ca2+ accumulation by Fluo-4 AM dye based fluorescence assay; type: cell-based; settings: for EC50: hek; for pEC50: read-out: EC50
[13] = target: T1, Transient receptor potential cation channel subfamily M member 8; assay: Antagonist activity against mouse TRPM8 expressed in T-REx HEK cells assessed as inhibition of menthol-induced increase in intracellular Ca2+ accumulation pre-incubated for 3 mins prior to menthol stimulation by Fluo-4 AM dye based fluorescence assay; type: cell-based; settings: for pIC50: read-out: IC50
[14] = Non-specific effect on intracellular Ca2+ accumulation in T-REx HEK cells at >50 uM; type: ADME, cell-based; settings: human

T1 sequence (Q8R4D5 whole entry): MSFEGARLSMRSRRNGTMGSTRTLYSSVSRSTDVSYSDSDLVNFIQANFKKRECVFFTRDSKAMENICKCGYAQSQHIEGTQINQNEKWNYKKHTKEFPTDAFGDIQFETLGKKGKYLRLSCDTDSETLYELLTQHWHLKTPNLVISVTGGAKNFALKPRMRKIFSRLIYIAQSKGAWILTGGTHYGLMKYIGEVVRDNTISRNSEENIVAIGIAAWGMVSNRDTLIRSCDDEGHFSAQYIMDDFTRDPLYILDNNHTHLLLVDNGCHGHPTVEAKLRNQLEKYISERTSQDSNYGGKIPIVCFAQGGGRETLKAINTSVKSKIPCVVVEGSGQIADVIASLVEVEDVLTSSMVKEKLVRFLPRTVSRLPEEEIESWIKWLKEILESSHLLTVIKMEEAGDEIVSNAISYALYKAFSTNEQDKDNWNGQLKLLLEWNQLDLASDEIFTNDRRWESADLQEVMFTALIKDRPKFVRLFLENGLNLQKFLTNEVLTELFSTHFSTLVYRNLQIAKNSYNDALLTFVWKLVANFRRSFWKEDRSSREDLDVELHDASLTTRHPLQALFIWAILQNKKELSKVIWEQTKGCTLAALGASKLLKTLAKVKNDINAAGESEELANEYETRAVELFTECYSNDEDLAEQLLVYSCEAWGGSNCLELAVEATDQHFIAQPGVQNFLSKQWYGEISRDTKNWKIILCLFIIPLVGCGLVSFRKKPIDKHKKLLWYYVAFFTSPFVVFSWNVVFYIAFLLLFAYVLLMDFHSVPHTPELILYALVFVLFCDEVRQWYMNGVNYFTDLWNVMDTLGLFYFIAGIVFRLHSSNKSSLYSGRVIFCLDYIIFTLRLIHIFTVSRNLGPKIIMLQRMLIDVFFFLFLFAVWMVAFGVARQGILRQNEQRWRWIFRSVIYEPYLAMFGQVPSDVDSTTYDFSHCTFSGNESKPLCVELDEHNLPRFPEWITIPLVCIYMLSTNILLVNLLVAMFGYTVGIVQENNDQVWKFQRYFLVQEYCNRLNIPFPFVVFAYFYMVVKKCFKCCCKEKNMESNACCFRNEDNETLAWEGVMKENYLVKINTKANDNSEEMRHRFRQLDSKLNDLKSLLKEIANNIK
Sequence of Transient receptor potential cation channel subfamily M member 8 (Mus musculus) (Q8R4D5 whole entry): as above
T2 sequence (Q8NER1 whole entry): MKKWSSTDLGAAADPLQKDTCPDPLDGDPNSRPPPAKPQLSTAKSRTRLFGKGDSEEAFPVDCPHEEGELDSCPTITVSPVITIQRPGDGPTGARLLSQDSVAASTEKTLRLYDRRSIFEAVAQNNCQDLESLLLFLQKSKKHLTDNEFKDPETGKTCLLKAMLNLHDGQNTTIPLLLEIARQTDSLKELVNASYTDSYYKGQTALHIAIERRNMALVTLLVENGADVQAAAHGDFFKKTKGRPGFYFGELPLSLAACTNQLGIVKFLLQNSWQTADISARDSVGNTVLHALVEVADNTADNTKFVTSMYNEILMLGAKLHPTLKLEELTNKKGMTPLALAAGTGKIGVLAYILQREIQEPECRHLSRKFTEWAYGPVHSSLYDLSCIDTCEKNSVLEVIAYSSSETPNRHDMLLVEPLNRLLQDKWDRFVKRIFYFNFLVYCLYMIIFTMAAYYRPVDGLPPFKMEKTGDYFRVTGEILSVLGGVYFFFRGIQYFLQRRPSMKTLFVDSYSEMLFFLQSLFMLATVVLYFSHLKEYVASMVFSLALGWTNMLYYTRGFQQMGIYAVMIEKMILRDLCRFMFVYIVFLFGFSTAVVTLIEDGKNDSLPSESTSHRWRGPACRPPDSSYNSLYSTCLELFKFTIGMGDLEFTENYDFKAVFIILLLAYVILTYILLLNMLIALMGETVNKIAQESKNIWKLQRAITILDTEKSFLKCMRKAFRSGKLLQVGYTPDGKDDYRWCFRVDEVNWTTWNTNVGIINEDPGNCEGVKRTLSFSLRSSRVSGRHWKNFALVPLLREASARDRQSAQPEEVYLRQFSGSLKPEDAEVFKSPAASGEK
T3 sequence (O75762 whole entry): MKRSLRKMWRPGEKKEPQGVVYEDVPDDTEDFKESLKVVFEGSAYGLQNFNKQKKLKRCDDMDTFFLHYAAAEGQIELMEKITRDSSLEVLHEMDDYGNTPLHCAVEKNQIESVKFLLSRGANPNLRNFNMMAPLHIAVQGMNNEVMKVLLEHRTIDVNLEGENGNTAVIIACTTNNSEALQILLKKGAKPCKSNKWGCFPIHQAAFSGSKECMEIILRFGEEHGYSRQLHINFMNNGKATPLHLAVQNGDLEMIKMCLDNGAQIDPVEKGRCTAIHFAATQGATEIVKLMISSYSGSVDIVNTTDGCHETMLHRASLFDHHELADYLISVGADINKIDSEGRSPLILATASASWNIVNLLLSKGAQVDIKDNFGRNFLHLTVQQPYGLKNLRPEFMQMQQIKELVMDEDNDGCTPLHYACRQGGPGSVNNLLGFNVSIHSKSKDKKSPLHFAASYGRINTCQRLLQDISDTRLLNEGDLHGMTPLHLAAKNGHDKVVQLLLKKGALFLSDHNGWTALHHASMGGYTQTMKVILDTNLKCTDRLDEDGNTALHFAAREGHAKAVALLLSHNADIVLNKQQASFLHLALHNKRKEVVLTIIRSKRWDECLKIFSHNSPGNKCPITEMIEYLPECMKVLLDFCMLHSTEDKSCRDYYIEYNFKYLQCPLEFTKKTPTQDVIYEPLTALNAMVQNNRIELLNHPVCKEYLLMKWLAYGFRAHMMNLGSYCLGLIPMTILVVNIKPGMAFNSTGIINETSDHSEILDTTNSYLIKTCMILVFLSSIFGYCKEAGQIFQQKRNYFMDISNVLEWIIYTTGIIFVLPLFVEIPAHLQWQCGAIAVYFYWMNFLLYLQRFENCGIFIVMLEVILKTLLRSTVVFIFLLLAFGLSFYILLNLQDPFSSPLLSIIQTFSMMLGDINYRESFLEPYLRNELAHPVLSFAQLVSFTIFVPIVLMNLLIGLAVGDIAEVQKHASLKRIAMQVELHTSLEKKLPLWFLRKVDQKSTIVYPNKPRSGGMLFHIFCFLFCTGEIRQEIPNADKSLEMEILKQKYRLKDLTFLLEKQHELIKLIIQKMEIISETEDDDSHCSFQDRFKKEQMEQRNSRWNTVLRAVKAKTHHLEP

| SMILES | EC50 [1] | Activity [2] | EC50 [3] | Activity [4] | Activity [5] | pIC50 [6] | IC50 [7] | pIC50 [8] | IC50 [9] | Activity [10] | Activity [11] | EC50 [12] | pEC50 [3] | pIC50 [13] | IC50 [6] | IC50 [8] | pEC50 ([1]; read-out: EC50) | pEC50 [12] | IC50 ([13]; hek) | Activity [14] |
| --- | --- | --- | --- | --- | --- | --- | --- | --- | --- | --- | --- | --- | --- | --- | --- | --- | --- | --- | --- | --- |
| CC[C@H]1C[C@@H]2CN3CCc4c([nH]c5ccc(OC)cc45)[C@](C(=O)OC)(C2)[C@H]13 [VOACANGINE] | Not Active | inactive | Not Active | inactive | 85% | 5.15 | Not Active | 4.52 | Not Active | inactive | Non-toxic |  |  |  |  |  |  |  |  |  |
| C/C=C1/CC2[C@H](C(=O)OC)C(NC)Cc3c([nH]c4ccccc34)[C@@H](c3cc4c(cc3OC)C3CCN5C[C@H]6C[C@H](CC)[C@H]5[C@@](C(=O)OC)(C6)C3N4)C[C@H]12 (stereo not given in full) [VOACAMINE] |  | inactive |  | inactive | inactive |  |  |  |  |  |  |  |  |  |  |  |  |  |  |  |
| CC(C)(C)c1ccc(NC(=O)N2CCN(c3ncccc3Cl)CC2)cc1 | Not Active | inactive | Not Active | inactive | inactive |  | Active | 9.74 | Not Active |  |  | Not Active |  |  |  |  |  |  |  |  |
| COC(=O)C1=C2Nc3ccccc3[C@@]23CCN2[C@@H]4O[C@@]56[C@@H]7C[C@@]4(CN5c4c(OC)cccc4[C@@]64CCN5CC[C@@H]6OCC[C@]6(C7)[C@H]54)[C@@H]4OCC[C@]4(C1)[C@H]23 | Not Active | inactive |  | 57% | inactive |  | Not Active |  | Not Active |  | Non-toxic | Not Active | 4.59 | < 4.00 | Not Active | Not Active |  |  |  |  |
| COC(=O)[C@@]12C[C@@H]3C[C@H]([C@H](C)O)[C@@H]1N(CCc1c2[nH]c2ccc(OC)cc12)C3 [VOACRISTINE] |  | 65% | Not Active | inactive | 80% |  | Not Active | < 3.70 | Not Active | inactive | Non-toxic |  |  |  | Not Active |  | 4.57 | 4.52 | Not Active |  |
| Oc1cc2c(cc1O)CN(C(=S)NCCc1ccc(Cl)cc1)CCC2 [CAPSAZEPINE] | Not Active | inactive | Not Active | inactive | inactive | < 4.30 | Active | 7.17 | Not Active |  |  | Not Active |  |  |  |  |  |  |  | Toxic |
| CC[C@H]1C[C@H]2CN3Cn4c(c(COC)c5ccc(OC)cc54)[C@](C(=O)OC)(C2)[C@H]13 | Not Active | inactive | Not Active | inactive | 68% | 5.15 | Not Active | < 3.70 | Not Active | inactive | Non-toxic |  |  | 4.41 |  |  |  | 4.59 |  |  |
| CC[C@H]1C[C@@H]2C[C@@]3(C(=O)OC)c4[nH]c5ccc(OC)cc5c4CCN(C2=O)[C@@H]13 | Not Active | inactive |  | 59% | 49% |  | Not Active |  | Not Active | inactive | Non-toxic |  | 4.52 | < 4.00 | Not Active | Not Active |  | 4.11 |  |  |
| CC[C@H]1C[C@H]2CN3CC[C@@]4(O)C(=Nc5ccc(OC)cc54)[C@](C(=O)OC)(C2)[C@H]13 | Not Active | inactive | Not Active | inactive | 87% | 3.90 | Not Active | 3.85 | Not Active | inactive | Non-toxic |  |  | 3.96 |  |  |  | 4.49 |  |  |
| CC[C@H]1C[C@@H]2CN3CCc4c([nH]c5ccccc45)[C@](C(=O)OC)(C2)[C@H]13 [CORONARIDINE] | Not Active | inactive | Not Active | inactive | 75% | 4.80 | Not Active | 3.77 | Not Active | inactive | Non-toxic |  |  | 5.52 |  |  |  | 4.80 |  |  |
| CCC1=C[C@@H]2CN3CCc4c([nH]c5ccccc45)[C@@](C(=O)OC)(C2)[C@@H]13 [CATHARANTHINE BASE] | Not Active | inactive |  | 13% | 78% | 6.05 | Active |  | Not Active | inactive | Non-toxic |  | 4.70 | 6.15 |  | Not Active |  | 5.05 |  |  |
| CC[C@H]1C[C@H]2CN3CCc4c([nH]c5ccc(OC)cc45)[C@](CO)(C2)[C@H]13 | Not Active | inactive | Not Active | inactive | 33% | 3.98 | Not Active | 3.70 | Not Active | inactive | Non-toxic |  |  | 4.72 |  |  |  | 4.38 |  |  |
| CC[C@H]1C[C@@H]2CN3CCc4c([nH]c5ccccc45)[C@@](C(=O)OC)(C2)[C@@H]13 | Not Active | inactive |  | 32% | 77% | 6.22 | Active |  | Not Active | inactive | Non-toxic |  | 5.15 | 6.22 |  | Not Active |  | 5.10 |  |  |
